≈ marks a conversion by molar mass, not a printed value.

Series [1] deals with S. aureus. Put plainly: Minimum bactericidal concentration (MBC). Format: cell-based. The note with it: Staphylococcus aureus.
The subject of series [2] is S. enterica. Description: Minimum bactericidal concentration (MBC). The note with it: Salmonella enterica; S. enterica; MBC; read-out: MBC/MFC. The series is classed as cell-based. The protocol: After MIC assessment, the indole derivatives (DS1–DS21), were additionally evaluated for MBC and MFC values. […] The 10–15 ml of nutrient agar and Sabouraud dextrose agar was added to the petri plates for bacterial and fungal samples respectively with gentle shaking of plates in order to mix the culture throughout the media. Allowed the media to solidify. The petri plates were then incubated for the predefined time and temperature as referenced already for bacterial and fungal cultures respectively. The plates were then investigated visually for the development of microbial growth. The MBC and MFC were stated as the minimum concentration of the compounds in aliquots showing no visual growth after incubation.

The test system of series [3] is S. aureus. Put plainly: MIC by tube dilution method. Format: cell-based. The following applies: Staphylococcus aureus, 24 h at 37 °C, read-out: MIC.
Series [4] concerns A. niger. Description: Minimum fungicidal concentration (MFC). The series is classed as cell-based. The following applies: Aspergillus niger, read-out: MBC/MFC.
In series [5] the test system is S. enterica. Put plainly: MIC by tube dilution method. The series is classed as cell-based. The following applies: Salmonella enterica, 24 h, 24 h at 37 °C, read-out: MIC.
In series [6] the test system is B. subtilis. Description: MIC by tube dilution method. The series is classed as cell-based. The following applies: Bacillus subtilis, 24 h at 37 °C, read-out: MIC.
Series [7] relates to E. coli. Put plainly: MIC by tube dilution method. The note with it: Escherichia coli, 24 h, 24 h at 37 °C, read-out: MIC. Format: cell-based.
In series [8] the test system is K. pneumonia. Put plainly: MIC by tube dilution method. Format: cell-based. The following applies: Klebsiella pneumoniae, 24 h, 24 h at 37 °C, read-out: MIC.
The subject of a further series is HEK-293. Put plainly: MTT cell proliferation assay, normal cells. Format: cell-based. The note with it: Homo sapiens, HEK293, HEK-293 normal cells, 48 h of drug treatment. How it is done: (§1) The cell lines used in study were initially procured from the National Centre for Cell Sciences (NCCS), Pune, India, and maintained in DMEM. The cell line was cultured in 25 cm^2 tissue culture flask with DMEM supplemented with 10% FBS, sodium bicarbonate, L-glutamine, and antibiotic solution containing: streptomycin (100 μg/ml), penicillin (100 U/ml). Cultured cell line was kept at 37 °C in a humidified 5% CO2 incubator (VWR, USA).
(§2) The compounds found to have good antimicrobial potential were then screened for their cytotoxicity using MTT […]) assay. 1 × 10^4 cells/well were seeded in 100 µl DMEM/MEM, supplemented with 10% FBS in each well of 96-well microculture plates and incubated for 24 h at 37 °C in a CO2 incubator. After incubation, all the prepared/synthesized compounds were added to the cells at 10, 25, 50 and 100 µg concentrations for 48 h. After 48 h of drug treatment, 10 µl MTT (5 mg/ml) was added to each well and the plates were further incubated for 4 h. Then the supernatant from each well was carefully removed, formazan crystals were dissolved in 100 µl of DMSO and absorbance at 570 nm wavelength was recorded on an ELISA reader. The IC50 value was calculated using the linear regression equation i.e. Y = Mx + C. Here, Y = 50, M and C values were derived from the viability graph. The assay was performed in triplicate.
In general terms: Tetrazolium dyes change colour on reduction, which living cells bring about.

Series [9] has as its system A. fumigatus. Put plainly: Minimum fungicidal concentration (MFC). The series is classed as cell-based. The following applies: Aspergillus fumigatus, read-out: MBC/MFC.
The test system of series [10] is B. subtilis. Put plainly: Minimum bactericidal concentration (MBC). Format: cell-based. The following applies: Bacillus subtilis.
Series [11] concerns K. pneumonia. Description: Minimum bactericidal concentration (MBC). The series is classed as cell-based. The note with it: Klebsiella pneumoniae.
The next series has as its system K562. Put plainly: MTT cell proliferation assay. The note with it: Homo sapiens, K562 leukemia, 48 h of drug treatment. The series is classed as cell-based. The protocol:
as §1, §2

The next series relates to HCT 116. Put plainly: MTT cell proliferation assay. The series is classed as cell-based. The note with it: Homo sapiens, HCT-116, 48 h, HCT 116 colon cancer, 48 h of drug treatment. The protocol:
as §1, §2

The subject of the next series is MDA MB 231. Description: MTT cell proliferation assay. Format: cell-based. The following applies: Homo sapiens, MDA-MB-231, 48 h, MDA MB 231 breast cancer, 48 h of drug treatment, read-out: IC50. The protocol:
as §1, §2

In series [12] the test system is E. coli. Description: Minimum bactericidal concentration (MBC). Format: cell-based. The note with it: Escherichia coli.
Series [13] deals with A. niger. Put plainly: MIC by tube dilution method. Format: cell-based. The following applies: Aspergillus niger, 168 h, 7 days at 25 °C, read-out: MIC.
The test system of series [14] is A. fumigatus. Description: MIC by tube dilution method. The following applies: Aspergillus fumigatus, 168 h, 7 days at 25 °C, read-out: MIC. Format: cell-based.

`C/C(=N/c1nnc(-c2ccc([N+](=O)[O-])cc2Cl)s1)c1ccc(/N=N\c2c[nH]c3ccc([N+](=O)[O-])cc23)cc1` [DS-3, (Z)-5-(2-Chloro-4-nitrophenyl)-N-(1-(4-((Z)-(5-nitro-1H-indol-3-yl)diazenyl)phenyl)ethylidene)-1,3,4-thiadiazol-2-amine] displayed a melting point of 155 to 160 °C. Further, the MBC in the series with S. aureus [1] is 62.5 µg/mL (≈ 114 µM). For the same compound, in the series on S. enterica [2], the MBC was 31.2 µg/mL (≈ 57.1 µM). For the same compound, the MIC in the series with S. aureus [3] worked out at 62.5 µg/mL (≈ 114 µM). In addition, the MFC with A. niger [4] came to 125 µg/mL (≈ 229 µM). In the series on S. enterica [5], the MIC was found to be 31.2 µg/mL (≈ 57.1 µM). Further, in the series with B. subtilis [6], the MIC was found to be 31.2 µg/mL (≈ 57.1 µM). The minimal inhibitory concentration (MIC) with E. coli [7] came to 3.9 µg/mL (≈ 7.13 µM). Also, in the series on K. pneumonia [8], the MIC worked out at 1.95 µg/mL (≈ 3.57 µM). Moreover, the IC50 in the series on HEK-293 came out at 311.2 ± 1.76 µg/mL (≈ 569 µM). Further, the MFC with A. fumigatus [9] came to 62.5 µg/mL (≈ 114 µM). In the series with B. subtilis [10], the MBC was found to be 62.5 µg/mL (≈ 114 µM). Also, the MBC with K. pneumonia [11] came to 31.2 µg/mL (≈ 57.1 µM). The same compound had an IC50 in the series on K562 of 146 ± 2.11 µg/mL (≈ 267 µM). In the series on HCT 116, this compound returned an IC50 of 110 ± 2.55 µg/mL (≈ 201 µM). The IC50 in the series on MDA MB 231 was found to be 46 ± 1.83 µg/mL (≈ 84 µM). For the same compound, the MBC against E. coli [12] amounted to 31.2 µg/mL (≈ 57.1 µM). In addition, the MIC in the series on A. niger [13] is 62.5 µg/mL (≈ 114 µM). Besides, the MIC in the series with A. fumigatus [14] came out at 15.6 µg/mL (≈ 28.6 µM).

Usually MIC stands for the lowest concentration that inhibits growth of the organism. The IC50 is the concentration that gives 50% inhibition. The term melting point denotes the temperature, or range, at which the solid turns liquid.

(Values after PMC6661771, “Indole hybridized diazenyl derivatives: synthesis, antimicrobial activity, cytotoxicity evaluation and docking studies” (BMC Chemistry, 2019).)
